Source: patent US20170050957A1, “4-AMINO-6-(HETEROCYCLIC)PICOLINATES AND 6-AMINO-2-(HETEROCYCLIC)PYRIMIDINE-4-CARBOXYLATES AND THEIR USE AS HERBICIDES” (Dow AgroSciences LLC, priority 2013, published 2017)
Like-named read-outs stand apart in the source and are kept apart here.

Assays:
[1] = system: Key Broadleaf Weed and Crop Species; experiment: Post-emergent Test II herbicidal activity (Table 15); assay type: in vivo; settings: post-emergence, 336 h, 14 d; for pest or weed control at 35 g/ha: 35 g ai/ha; for pest or weed control at 70 g/ha: 70 g ai/ha; for pest or weed control at 140 g/ha: 140 g ai/ha
Procedure, shortened: (§1)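 Plants grown in greenhouse (~15 h photoperiod, 23-29 °C day, 22-28 °C night) to first or second true leaf stage, then sprayed post-emergence at 187 L/ha with a high rate and 1/2×, 1/4×, 1/8× and 1/16× dilutions. Injury scored visually after 14 d, 0-100% versus untreated plants.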

[2] = system: Key Grass and Sedge Weeds as well as Grass Crops; experiment: Post-emergent Test II herbicidal activity (Table 16); assay type: in vivo; settings: post-emergence, 336 h; for pest or weed control at 35 g/ha: 35 g ai/ha; for pest or weed control at 70 g/ha: 70 g ai/ha; for pest or weed control at 140 g/ha: 140 g ai/ha
Procedure, shortened: as §1

[3] = Abutilon theophrasti, velvetleaf (Abutilon theophrasti), read-out: Visual Growth Reduction (%) 14 Days After Application, ABUTH
[4] = Amaranthus retroflexus, redroot pigweed (Amaranthus retroflexus), read-out: Visual Growth Reduction (%) 14 Days After Application, AMARE
[5] = Brassica napus, oilseed rape, canola (Brassica napus), read-out: Visual Growth Reduction (%) 14 Days After Application, BRSNN
[6] = Chenopodium album, lambsquarters (Chenopodium album), read-out: Visual Growth Reduction (%) 14 Days After Application, CHEAL
[7] = Euphorbia heterophylla, wild poinsettia (Euphorbia heterophylla), read-out: Visual Growth Reduction (%) 14 Days After Application, EPHHL
[8] = Helianthus annuus, sunflower (Helianthus annuus), read-out: Visual Growth Reduction (%) 14 Days After Application, HELAN
[9] = Cyperus esculentus, yellow nutsedge (Cyperus esculentus), 14 d, read-out: Visual Growth Reduction (%) 14 Days After Application, CYPES
[10] = Echinochloa crus-galli, barnyardgrass (Echinochloa crus-galli), 14 d, read-out: Visual Growth Reduction (%) 14 Days After Application, ECHCG
[11] = Oryza sativa, rice (Oryza sativa), 14 d, read-out: Visual Growth Reduction (%) 14 Days After Application, ORYSA
[12] = Setaria faberi, giant foxtail (Setaria faberi), 14 d, read-out: Visual Growth Reduction (%) 14 Days After Application, SETFA
[13] = Triticum aestivum, wheat, spring (Triticum aestivum), 14 d, read-out: Visual Growth Reduction (%) 14 Days After Application, TRZAS
[14] = Zea mays, maize, corn (Zea mays), 14 d, read-out: Visual Growth Reduction (%) 14 Days After Application, ZEAMX
[15] = Cyperus esculentus, yellow nutsedge (Cyperus esculentus), 14 days after application, read-out: Visual Growth Reduction (%) 14 Days After Application CYPES
[16] = Echinochloa crus-galli, barnyardgrass (Echinochloa crus-galli), 14 days after application, read-out: Visual Growth Reduction (%) 14 Days After Application ECHCG
[17] = Oryza sativa, rice (Oryza sativa), 14 days after application, read-out: Visual Growth Reduction (%) 14 Days After Application ORYSA
[18] = Setaria faberi, giant foxtail (Setaria faberi), 14 days after application, read-out: Visual Growth Reduction (%) 14 Days After Application SETFA
[19] = Triticum aestivum, wheat, spring (Triticum aestivum), 14 days after application, read-out: Visual Growth Reduction (%) 14 Days After Application TRZAS
[20] = Zea mays, maize, corn (Zea mays), 14 days after application, read-out: Visual Growth Reduction (%) 14 Days After Application ZEAMX

melting point	Structure (SMILES)	pest or weed control at 35 g/ha [1, 3]	pest or weed control at 70 g/ha [1, 3]	pest or weed control at 140 g/ha [1, 3]	pest or weed control at 35 g/ha [1, 4]	pest or weed control at 70 g/ha [1, 4]	pest or weed control at 140 g/ha [1, 4]	pest or weed control at 35 g/ha [1, 5]	pest or weed control at 70 g/ha [1, 5]	pest or weed control at 140 g/ha [1, 5]	pest or weed control at 35 g/ha [1, 6]	pest or weed control at 70 g/ha [1, 6]	pest or weed control at 140 g/ha [1, 6]	pest or weed control at 35 g/ha [1, 7]	pest or weed control at 70 g/ha [1, 7]	pest or weed control at 140 g/ha [1, 7]	pest or weed control at 35 g/ha [1, 8]	pest or weed control at 70 g/ha [1, 8]	pest or weed control at 140 g/ha [1, 8]	other results
153 °C	COC(=O)c1nc(-c2cc3occc3cc2F)nc(N)c1OC [Compound 2.14]	0 to 29%	0 to 29%	0 to 29%	95 to 100%	95 to 100%	95 to 100%	95 to 100%	95 to 100%	95 to 100%	85 to 94%	95 to 100%	95 to 100%	85 to 94%	95 to 100%	95 to 100%	60 to 74%	85 to 94%	95 to 100%	pest or weed control at 35 g/ha [2, 9]: 0 to 29%; pest or weed control at 70 g/ha [2, 9]: 0 to 29%; pest or weed control at 140 g/ha [2, 9]: 0 to 29%; pest or weed control at 35 g/ha [2, 10]: 0 to 29%; pest or weed control at 70 g/ha [2, 10]: 0 to 29%; pest or weed control at 140 g/ha [2, 10]: 75 to 84%; pest or weed control at 35 g/ha [2, 11]: 0 to 29%; pest or weed control at 70 g/ha [2, 11]: 0 to 29%; pest or weed control at 140 g/ha [2, 11]: 0 to 29%; pest or weed control at 35 g/ha [2, 12]: 0 to 29%; pest or weed control at 70 g/ha [2, 12]: 0 to 29%; pest or weed control at 140 g/ha [2, 12]: 0 to 29%; pest or weed control at 35 g/ha [2, 13]: 0 to 29%; pest or weed control at 70 g/ha [2, 13]: 0 to 29%; pest or weed control at 140 g/ha [2, 13]: 0 to 29%; pest or weed control at 35 g/ha [2, 14]: 0 to 29%; pest or weed control at 70 g/ha [2, 14]: 0 to 29%; pest or weed control at 140 g/ha [2, 14]: 0 to 29%
188 to 190 °C	COC(=O)c1nc(-c2ccc3[nH]ncc3c2)c(F)c(N)c1Cl [Compound 4.01]	0 to 29%	0 to 29%	0 to 29%	0 to 29%	45 to 59%	60 to 74%	0 to 29%	0 to 29%	0 to 29%	0 to 29%	60 to 74%	60 to 74%	0 to 29%	0 to 29%	0 to 29%	0 to 29%	0 to 29%	0 to 29%	pest or weed control at 35 g/ha [2, 15]: 0 to 29%; pest or weed control at 70 g/ha [2, 15]: 0 to 29%; pest or weed control at 140 g/ha [2, 15]: 0 to 29%; pest or weed control at 35 g/ha [2, 16]: 0 to 29%; pest or weed control at 70 g/ha [2, 16]: 0 to 29%; pest or weed control at 140 g/ha [2, 16]: 0 to 29%; pest or weed control at 35 g/ha [2, 17]: 0 to 29%; pest or weed control at 70 g/ha [2, 17]: 0 to 29%; pest or weed control at 140 g/ha [2, 17]: 0 to 29%; pest or weed control at 35 g/ha [2, 18]: 0 to 29%; pest or weed control at 70 g/ha [2, 18]: 0 to 29%; pest or weed control at 140 g/ha [2, 18]: 0 to 29%; pest or weed control at 35 g/ha [2, 19]: 0 to 29%; pest or weed control at 70 g/ha [2, 19]: 0 to 29%; pest or weed control at 140 g/ha [2, 19]: 0 to 29%; pest or weed control at 35 g/ha [2, 20]: 0 to 29%; pest or weed control at 70 g/ha [2, 20]: 0 to 29%; pest or weed control at 140 g/ha [2, 20]: 0 to 29%
